In patent US20260216158A1, “OCULAR IMPLANT CONTAINING A TYROSINE KINASE INHIBITOR” (OCULAR THERAPEUTIX, INC., priority 2023, published 2026):
Converted amounts (≈) assume the structure as drawn. “And” between values parts separate entries of the source, which are not always exact repeats. Equal entries are not always repeated. Each block holds one molecule with its values, some of them ahead of it.

What was measured:
[1] = Stability studies of axitinib co-crystals (Example 4.4); assay type: physicochemical
Text: The results are also depicted in Table 8.

[2] = Solubility of axitinib prodrugs in PBS, 24 h at 22° C., HPLC (Example 6.2); assay type: physicochemical; conditions: for Mean Solubility / solubility at 24 h: PBS pH 7.2 to 7.4, 24 hours incubation at 22° C.; for solubility at 24 h / Obtained Conc. (replicate): PBS; for solubility at 24 h: 22 °C, pH 7.2, aqueous buffer, thermodynamic from solid; for Obtained Conc. (replicate): 24 h at 22° C., after dilution factor, replicates R1, R2
Protocol: • PBS, pH 7.2 • 24 h at 22° C. with continuous shaking • Solubility of test item was determined by HPLC analysis with calibration curve

[3] = as above; assay type: physicochemical; conditions: pH 7.4, replicates R1, R2
[4] = PBS pH 7.4, 37° C.
[5] = Stability of axitinib polymorph IV in an implant throughout 6 months (Example 11); assay type: physicochemical
[6] = Solubility of axitinib free base polymorphs (SAB-I, Polymorph IV) in PBS (Example 6.1); conditions: for Solubility in PBS, Day 1 / Solubility in PBS, Day2 / Solubility in PBS, Day 5 / Solubility in PBS, Day 6 / Solubility in PBS, Day 8 / Equilibrium solubility in PBS, Average (Days 5-8): 37° C., pH 7.2 to 7.4; for Solubility in PBS, Day2: day 2; for Equilibrium solubility in PBS, Average (Days 5-8): average of days 5, 6 and 8, UPLC
Solubility of axitinib = assay type: physicochemical; conditions: PBS, 37 °C, pH 7.2, aqueous buffer, thermodynamic from solid; read-out: Solubility in PBS pH 7.2-7.4 (37° C., 5 days)
physchem [7] = conditions: aqueous with cosolvent or surfactant or cyclodextrin
physchem [8] = conditions: PBS, 37 °C, pH 7.4, aqueous buffer, thermodynamic from solid
[9] = cited from earlier work
[10] = NHP study: bioanalysis of axitinib in plasma; assay type: in vivo, Cynomolgus monkeys; conditions: at sacrifice time points, LLOQ 0.100 ng/mL
[11] = axitinib: Rugo et al. 2005; ranibizumab, aflibercept: in the human eye; cited from earlier work
[12] = tested on: VEGF-induced retinal vascular leakage; assay: VEGF challenge study, leakage score over time (Example 14); assay type: in vivo, Dutch Belted rabbit; conditions: fluorescein angiography, 0 no leakage, 4 no inhibition of leakage
retinal vessel leakage = assay: In vivo VEGF challenge study, leakage by fluorescein angiography; conditions: rabbit VEGF challenge, scale 0 to 4
Text: The scoring criteria is based on Table 37B.

[13] = listed as Polymorph IV micronized

Molecule: O=C(O)[C@H](O)[C@@H](O)C(=O)O [(+)-L-Tartaric acid]
HPLC Purity after stability studies 25° C./60% RH [1]: 96.66
HPLC Purity after stability studies 40° C./75% RH [1]: 96.24
HPLC Purity after stability studies 80° C. [1]: 93.24
Stability-3 days slurry in H2O (25° C.) and 4 days drying at 32° C./0% RH, HPLC [1]: 97.50

Molecule: CNC(=O)c1ccccc1Sc1ccc2c(/C=C/c3ccccn3)nn(COC(=O)CCC(=O)O)c2c1 [Axitinib N-Succinoyloxymethyl Prodrug]
Mean Solubility [2]: 217.44 µg/mL
solubility at 24 h [2]: 217 µg/mL (≈ 421 µM)
Obtained Conc. (replicate) [2]: 222.06 µg/mL and 212.82 µg/mL

Molecule: CNC(=O)c1ccccc1Sc1ccc2c(/C=C/c3ccccn3)nn(COC(=O)CCOC)c2c1 [Axitinib N-m(PEG)1-oxymethyl Prodrug, 3-Methoxy-propionic acid 6-(2-methylcarbamoyl-phenylsulfanyl)-3-((E)-2-pyridin-2-yl-vinyl)-indazol-1-ylmethyl ester]
Conc. (replicate) [3]: BLOQ (“BLOQ” means “below limit of quantification”. i.e., <0.781 μg/mL)
Mean Solubility [2]: Not soluble

Molecule: CNC(=O)c1ccccc1Sc1ccc2c(/C=C/c3ccccn3)nn(COC(=O)CCOCCOC)c2c1 [Axitinib N-m(PEG)2-oxymethyl Prodrug, 3-(2-Methoxy-ethoxy)-propionic acid 6-(2-methylcarbamoyl-phenylsulfanyl)-3-((E)-2-pyridin-2-yl-vinyl)-indazol-1-ylmethylester]
Conc. (replicate) [3]: 1112 ng/mL and 1086 ng/mL
solubility at 24 h [2]: 1.1 µg/mL (≈ 2.01 µM)

Molecule: CNC(=O)c1ccccc1Sc1ccc2c(/C=C/c3ccccn3)nn(COC(=O)CCOCCOCCOC)c2c1 [Axitinib N-m(PEG)3-oxymethyl Prodrug, 3-[2-(2-Methoxy-ethoxy)-ethoxy]-propionic acid 6-(2-methylcarbamoyl-phenylsulfanyl)-3-((E)-2-pyridin-2-yl-vinyl)-indazol-1-ylmethyl ester]
Conc. (replicate) [3]: 6179 ng/mL and 6146 ng/mL
solubility at 24 h [2]: 6.16 µg/mL (≈ 10.4 µM)

Molecule: CNC(=O)c1ccccc1Sc1ccc2c(/C=C/c3ccccn3)nn(COC(=O)CCOCCOCCOCCOC)c2c1 [Axitinib N-m(PEG)4-oxymethyl Prodrug]
solubility at 24 h [2]: 99.4 µg/mL (≈ 157 µM)
Obtained Conc. (replicate) [2]: 100.16 µg/mL and 98.58 µg/mL

Molecule: O=C(O)CCCC(=O)O [Glutaric acid]
HPLC Purity after stability studies 25° C./60% RH [1]: 90.81
HPLC Purity after stability studies 40° C./75% RH [1]: 99.31
HPLC Purity after stability studies 80° C. [1]: 99.44
Stability-3 days slurry in H2O (25° C.) and 4 days drying at 32° C./0% RH, HPLC [1]: 99.80
Thermodynamic solubility in PBS, pH 7.4 at 37° C., 2 hours ([4]; 2 hours): LOD
Thermodynamic solubility in PBS, pH 7.4 at 37° C., 4 hours ([4]; 4 hours): LOD
Thermodynamic solubility in PBS, pH 7.4 at 37° C., 24 hours ([4]; 24 hours): LOD

Molecule: Bevacizumab: Avastin (bevacizumab), comparator in the VEGF challenge study
Leakage Scores (average) ([12]; Day 7): 0.0
Leakage Scores (average) ([12]; Day 17): 0.0
Leakage Scores (average) ([12]; Day 31): 0.0
Leakage Scores (average) ([12]; Day 45): 1.0
Leakage Scores (average) ([12]; Day 59): 3.1
Leakage Scores (average) ([12]; Day 73): 3.7
leakage score (mean) (retinal vessel leakage; after 60 days, untreated eyes 3.2): 3.1
leakage score (mean) (retinal vessel leakage; going further beyond 60 days): 3.7
leakage score (mean) (retinal vessel leakage; up to 31 days): 0.0

Molecule: Citric Acid
HPLC Purity after stability studies 25° C./60% RH [1]: 90.78
HPLC Purity after stability studies 40° C./75% RH [1]: 93.23
HPLC Purity after stability studies 80° C. [1]: 86.88
Stability-3 days slurry in H2O (25° C.) and 4 days drying at 32° C./0% RH, HPLC [1]: 96.24

Molecule: Fumaric Acid
HPLC Purity after stability studies 25° C./60% RH [1]: 99.60
HPLC Purity after stability studies 40° C./75% RH [1]: 99.64
HPLC Purity after stability studies 80° C. [1]: 99.47
Stability-3 days slurry in H2O (25° C.) and 4 days drying at 32° C./0% RH, HPLC [1]: 99.76

Molecule: aflibercept: anti-VEGF agent, aflibercept intravitreal injection by Regeneron
clearance half-life (t1/2) [11]: several days

Molecule: ranibizumab: anti-VEGF agent, ranibizumab injection by Genentech
clearance half-life (t1/2) [11]: several days

Now from value to molecule, other results behind:

chemical and physical stability in an implant [5]: chemically and physically stable
Molecule: CNC(=O)c1ccccc1Sc1ccc2c(/C=C/c3ccccn3)n[nH]c2c1 [Polymorph IV, axitinib]

Solubility in PBS, Day 1 [6]: 0.236 µg/mL (≈ 0.611 µM)
Solubility in PBS, Day2 [6]: 0.265 µg/mL (≈ 0.686 µM)
Solubility in PBS, Day 5 [6]: 0.216 µg/mL (≈ 0.559 µM)
Solubility in PBS, Day 6 [6]: 0.226 µg/mL (≈ 0.585 µM)
Solubility in PBS, Day 8 [6]: 0.237 µg/mL (≈ 0.613 µM)
Molecule: CNC(=O)c1ccccc1Sc1ccc2c(/C=C/c3ccccn3)n[nH]c2c1 [SAB-I micronized]

Solubility in PBS, Day 1 [6]: 0.153 µg/mL (≈ 0.396 µM)
Solubility in PBS, Day2 [6]: 0.228 µg/mL (≈ 0.59 µM)
Solubility in PBS, Day 5 [6]: 0.190 µg/mL (≈ 0.492 µM)
Solubility in PBS, Day 6 [6]: 0.194 µg/mL (≈ 0.502 µM)
Solubility in PBS, Day 8 [6]: 0.188 µg/mL (≈ 0.486 µM)
Molecule: CNC(=O)c1ccccc1Sc1ccc2c(/C=C/c3ccccn3)n[nH]c2c1 [SAB-I non-micronized]

Solubility in PBS, Day 1 [6]: 0.246 µg/mL (≈ 0.637 µM)
Solubility in PBS, Day2 [6]: 0.277 µg/mL (≈ 0.717 µM)
Solubility in PBS, Day 5 [6]: 0.256 µg/mL (≈ 0.662 µM)
Solubility in PBS, Day 6 [6]: 0.253 µg/mL (≈ 0.655 µM)
Solubility in PBS, Day 8 [6]: 0.247 µg/mL (≈ 0.639 µM)
Molecule: CNC(=O)c1ccccc1Sc1ccc2c(/C=C/c3ccccn3)n[nH]c2c1 [SAB-I super-micronized]

solubility at 5 days (Solubility of axitinib): 0.2 µg/mL (≈ 0.517 µM)
Molecule: CNC(=O)c1ccccc1Sc1ccc2c(/C=C/c3ccccn3)n[nH]c2c1 [SAB-I, axitinib]

Equilibrium solubility in PBS, Average (Days 5-8) [6]: about 0.435 μg/mL
Equilibrium solubility in PBS, Average (Days 5-8) [6, 13]: 0.435 µg/mL
Solubility in PBS, Day 1 [6, 13]: 0.678 µg/mL (≈ 1.75 µM)
Solubility in PBS, Day2 [6, 13]: 0.479 µg/mL (≈ 1.24 µM)
Solubility in PBS, Day 5 [6, 13]: 0.413 µg/mL (≈ 1.07 µM)
Solubility in PBS, Day 6 [6, 13]: 0.443 µg/mL (≈ 1.15 µM)
Solubility in PBS, Day 8 [6, 13]: 0.449 µg/mL (≈ 1.16 µM)
Molecule: CNC(=O)c1ccccc1Sc1ccc2c(/C=C/c3ccccn3)n[nH]c2c1 [axitinib polymorph IV]

solubility (physchem [7]; solubility in 25%/75% (v/v) ethanol/water): 13.4 µg/mL (≈ 34.7 µM)
solubility thermodynamic at 5 days (physchem [8]): ~0.223 µg/mL (≈ 0.577 µM)
solubility in PBS ([6]; PBS pH 7.2 to 7.4, 37° C., after five days of incubation): less than 0.3 μg/mL
Molecule: CNC(=O)c1ccccc1Sc1ccc2c(/C=C/c3ccccn3)n[nH]c2c1 [axitinib polymorph SAB-I]

solubility (physchem [7]; mean solubility value in 25%/75% (v/v) ethanol/water): 18.3 µg/mL (≈ 47.4 µM)
Molecule: CNC(=O)c1ccccc1Sc1ccc2c(/C=C/c3ccccn3)n[nH]c2c1 [axitinib, N-methyl-2-[3-((E)-2-pyridin-2-yl-vinyl)-1H-indazol-6-ylsulfanyl]-benzamide]
vitreous half-life [9]: 2 h
Axitinib concentrations in plasma [10]: No measurable amount of axitinib was detected
clearance half-life (t1/2) [11]: a few hours
